{"source": "ChEMBL document CHEMBL5120765", "about": "“Synthesis of novel 1-phenyl-benzopyrrolizidin-3-one derivatives and evaluation of their cytoneuroprotective effects against NMDA-induced injury in PC12 cells” (Bioorg Med Chem, 2022)", "key": {"PC-12 [1]": {"system": "PC-12", "assay": "Neuroprotective activity against NMDA-induced excitotoxicity in rat PC-12 cells assessed as increase in cell viability at 20 uM pretreated for 24 hr followed by NMDA addition and measured after 6 hrs by MTT assay", "type": "functional"}, "PC-12 [2]": {"system": "PC-12", "assay": "Neuroprotective activity against NMDA-induced excitotoxicity in rat PC-12 cells assessed as increase in cell viability at 5 uM pretreated for 24 hr followed by NMDA addition and measured after 6 hrs by MTT assay", "type": "functional, cell-based", "settings": "time 30.0 hrs"}, "PC-12 [3]": {"system": "PC-12", "assay": "Neuroprotective activity against NMDA-induced excitotoxicity in rat PC-12 cells assessed as increase in cell viability pretreated for 24 hr followed by NMDA addition and measured after 6 hrs by MTT assay", "type": "functional, cell-based", "settings": "dose 2.5-20 µM, time 30.0 hrs, DDE = dose-dependent effect"}, "PC-12 [4]": {"system": "PC-12", "assay": "Inhibition of NMDA-induced Ca2+ influx in rat PC-12 cells assessed as reduction in intracellular Ca2+ concentration at 15 uM pretreated for 24 hr followed by NMDA addition and measured after 6 hrs by Fluo2-AM staining based fluorescence microscopic method", "type": "functional, cell-based", "settings": "time 30.0 hrs"}, "PC-12 [5]": {"system": "PC-12", "assay": "Neuroprotective activity against NMDA-induced excitotoxicity in rat PC-12 cells assessed as increase in cell viability at 15 uM pretreated for 24 hr followed by NMDA addition and measured after 6 hrs by MTT assay", "type": "functional", "settings": "time 30 hrs"}, "PC-12 [6]": {"system": "PC-12", "assay": "Neuroprotective effect against NMDA-induced rat PC-12 cells assessed as prevention of morphological changes at 15 uM", "type": "functional, cell-based"}}, "note": "Calls of active or inactive are those of the source. The calls are words filed in the database; no cut-off is given here.", "data": [{"compound": "O=C1C[C@@H](c2ccccc2)[C@H]2Cc3ccccc3N12", "note": "(racemic)", "values": [{"measurement": "Activity", "setting": "PC-12 [1]; time 30.0 hrs", "value": "Active"}]}, {"compound": "O=C1C[C@H](c2cccc(OCc3ccccc3)c2)[C@H]2Cc3c(F)cccc3N12", "note": "(racemic)", "values": [{"measurement": "Activity", "setting": "PC-12 [1]; time 30.0 hrs", "value": "Active"}]}, {"compound": "COc1cc(OC)cc([C@@H]2CC(=O)N3c4ccccc4C[C@H]23)c1", "note": "(racemic)", "values": [{"measurement": "Activity", "setting": "PC-12 [1]; time 30.0 hrs", "value": "Active"}]}, {"compound": "COc1c(OCc2ccccc2)cccc1[C@@H]1CC(=O)N2c3ccccc3C[C@H]12", "note": "(racemic)", "values": [{"measurement": "Activity", "setting": "PC-12 [1]; time 30.0 hrs", "value": "Active"}]}, {"compound": "O=C1C[C@@H](c2cccc(OCc3ccccc3)c2)[C@H]2Cc3cc(OCc4ccccc4)ccc3N12", "note": "(racemic)", "values": [{"measurement": "Activity", "setting": "PC-12 [1]; time 30.0 hrs", "value": "Active"}]}, {"compound": "O=C1C[C@H](c2cccc(OCc3ccccc3)c2)[C@H]2Cc3ccccc3N12", "note": "(racemic)", "values": [{"measurement": "Activity", "setting": "PC-12 [1]; time 30.0 hrs", "value": "Active"}]}, {"compound": "COc1ccccc1[C@@H]1CC(=O)N2c3ccccc3C[C@H]12", "note": "(racemic)", "values": [{"measurement": "Activity", "setting": "PC-12 [1]; time 30.0 hrs", "value": "Active"}]}, {"compound": "O=C1C[C@@H](c2cccc(OCc3ccccc3)c2)[C@H]2Cc3ccccc3N12", "note": "(racemic)", "values": [{"measurement": "Activity", "setting": "PC-12 [1]; time 30.0 hrs", "value": "Active"}]}, {"compound": "COc1ccc([C@@H]2CC(=O)N3c4ccccc4C[C@H]23)cc1", "note": "(racemic)", "values": [{"measurement": "Activity", "setting": "PC-12 [1]; time 30.0 hrs", "value": "Active"}]}, {"compound": "C[C@]12N[C@H](Cc3ccccc31)c1ccccc12.O=C(O)/C=C\\C(=O)O", "note": "[DIZOCILPINE MALEATE]", "values": [{"measurement": "Activity", "setting": "PC-12 [2]", "value": "Active"}, {"measurement": "Activity", "setting": "PC-12 [3]", "value": "Dde"}, {"measurement": "inhibition", "setting": "PC-12 [4]", "value": "Active"}, {"measurement": "Activity", "setting": "PC-12 [5]", "value": 96.96, "unit": "%"}, {"measurement": "Activity", "setting": "PC-12 [6]", "value": "Active"}, {"measurement": "Activity", "setting": "PC-12 [1]; time 30 hrs", "value": 95.48, "unit": "%"}]}, {"compound": "O=C1C[C@@H](c2cccc(OCc3ccccc3)c2)[C@H]2Cc3c(F)cccc3N12", "note": "(racemic)", "values": [{"measurement": "Activity", "setting": "PC-12 [2]", "value": "Active"}, {"measurement": "Activity", "setting": "PC-12 [3]", "value": "Dde"}, {"measurement": "inhibition", "setting": "PC-12 [4]", "value": "Active"}, {"measurement": "Activity", "setting": "PC-12 [5]", "value": 96.16, "unit": "%"}, {"measurement": "Activity", "setting": "PC-12 [6]", "value": "Active"}, {"measurement": "Activity", "setting": "PC-12 [1]; time 30 hrs", "value": 94.59, "unit": "%"}]}]}
